# Assay results published in patent publication US4663344A, “Anti-inflammatory and analgesic 3-hydroxybenzo[b]thiophene derivatives, compositions, and method of use therefor” (Merck & Co., Inc., priority 1985, dated 1987).
# Target: T1, RBL Cell 5-Lipoxygenase (Rattus norvegicus, UniProt P12527)
# T1 construct: RBL Cell 5-Lipoxygenase; endogenous in cells; host or cells: RBL cells
# T1 sequence (P12527 1-673): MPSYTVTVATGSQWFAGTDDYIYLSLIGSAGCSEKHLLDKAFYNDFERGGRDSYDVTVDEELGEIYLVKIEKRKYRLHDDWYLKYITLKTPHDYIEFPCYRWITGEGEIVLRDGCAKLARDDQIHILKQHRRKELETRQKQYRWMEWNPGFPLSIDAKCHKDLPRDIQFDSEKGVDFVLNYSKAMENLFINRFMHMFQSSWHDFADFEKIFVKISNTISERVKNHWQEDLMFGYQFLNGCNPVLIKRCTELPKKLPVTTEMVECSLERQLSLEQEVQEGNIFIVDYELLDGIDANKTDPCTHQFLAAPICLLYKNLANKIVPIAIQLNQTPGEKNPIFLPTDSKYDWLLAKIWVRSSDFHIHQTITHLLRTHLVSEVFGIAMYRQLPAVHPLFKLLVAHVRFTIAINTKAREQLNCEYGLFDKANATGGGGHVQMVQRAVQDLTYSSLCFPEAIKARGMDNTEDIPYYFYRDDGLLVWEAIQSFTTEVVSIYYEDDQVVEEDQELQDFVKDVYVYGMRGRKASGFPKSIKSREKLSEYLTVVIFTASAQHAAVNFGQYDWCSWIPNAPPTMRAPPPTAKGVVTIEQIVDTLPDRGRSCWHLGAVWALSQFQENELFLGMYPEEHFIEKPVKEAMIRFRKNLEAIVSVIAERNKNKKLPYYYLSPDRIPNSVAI
# Test: Inhibition of RBL Cell 5-Lipoxygenase
# Assay type: biochemical
# Conditions: read-out: Percent Inhibition (conc.)
# From the text: Protocol published in R. W. Egan et al., "Advances in Prostaglandin, Thromboxane, and Leukotriene Research," Vol. 11 (edited by B. Samuelson et al., Raren Press, N.Y., 1983), p. 151.
Structure (SMILES),inhibition at 15 µM [%],other results
"CCCCc1sc2ccc(Cl)cc2c1OC(C)=O [Example 1, 3-Acetoxy-2-Butyl-5-Chlorobenzo[b]thiophene]",> 95,
"CC(=O)Oc1c(Cc2ccccc2)sc2ccc(Cl)cc12 [Example 2, 3-Acetoxy-2-Benzyl-5-Chlorobenzo[b]thiophene]",> 95,
"Oc1c(-c2ccccc2)sc2ccc(C(F)(F)F)cc12 [Example 4, 3-Hydroxy-2-phenyl-5-trifluoromethylbenzo[b]thiophene]",,inhibition at 5 µM (5 μM): > 95%
"CC(=O)Oc1c(-c2ccccc2)sc2ccc(C(F)(F)F)cc12 [Example 5, 3-Acetoxy-2-Phenyl-5-Trifluoromethylbenzo[b]thiophene]",> 95,
"COc1cccc2sc(-c3ccccc3)c(O)c12 [Example 6, 3-Hydroxy-4-Methoxy-2-Phenylbenzo[b]thiophene]",> 95,
"CC(=O)Oc1cccc2sc(-c3ccccc3)c(OC(C)=O)c12 [Example 7, 3,4-Diacetoxy-2-Phenylbenzo[b]thiophene]",,inhibition at 1 µM: > 95%
"Oc1cccc2sc(-c3ccccc3)c(O)c12 [Example 8, 3,4-dihydroxy-2-phenylbenzo[b]thiophene]",> 95,
"Cc1cccc(-c2sc3ccc(C(F)(F)F)cc3c2O)c1 [Example 16, 3-Hydroxy-2-(m-methylphenyl)-5-trifluoromethylbenzo[b]thiophene]",,inhibition at 1 µM: > 95%
"COC(=O)C=Cc1sc2ccccc2c1O [Example 20, Methyl 3-(3-hydroxybenzo[b]thiophen-2-yl)acrylate]",,inhibition at 3.6 µM (3.6 μM): 100%
"COC(=O)C=Cc1sc2ccccc2c1OC(C)=O [Example 21, Methyl 3(3-acetoxybenzo[b]thiophen-2-yl)acrylate]",,inhibition at 0.036 µM (0.036 μM): 71%
COC(=O)CCc1sc2ccc(C(F)(F)F)cc2c1OC(C)=O [Example 22],,inhibition at 0.06 µM (0.06 μM): > 95%
"CC(=O)Oc1c(C)sc2ccc(C(F)(F)F)cc12 [Example 23, 2-Methyl-3-Acetoxy-5-trifluoromethylbenzo[b]thiophene]",,inhibition at 0.4 µM (0.4 μM): 100%
"CC(=O)Oc1c(CSc2nc(-c3ccccc3)c(-c3ccccc3)[nH]2)sc2ccccc12 [Example 25, 2-(3-acetoxybenzo[b]thien-2-ylmethyl)thio-4,5-diphenylimidazole]",,inhibition at 22 µM: 52%
"CC(=O)Oc1c(C=C(c2ccccc2)c2ccccc2)sc2ccc(C(F)(F)F)cc12 [Example 27, 2-(2,2-diphenylethenyl)-3-acetoxy-5-trifluoromethyl benzo[b]thiophene]",,inhibition at 22 µM: 95%

# Continued, in another order:
inhibition at 15 µM [%],Structure (SMILES),other results
> 95,"Oc1c(-c2cccc(C(F)(F)F)c2)sc2ccc(C(F)(F)F)cc12 [Example 11, 3-Hydroxy-5-Trifluoromethyl-2-(m-trifluoromethylphenyl)-Benzo[b]thiophene]",
> 95,"Oc1c(-c2cccc(Cl)c2)sc2ccc(C(F)(F)F)cc12 [Example 12, 3-Hydroxy-2-(m-chlorophenyl)-5-trifluoromethyl-benzo[b]thiophene]",
> 95,"COc1ccc(-c2sc3ccc(C(F)(F)F)cc3c2O)cc1 [Example 15, 3-Hydroxy-2-(p-methoxyphenyl)-5-trifluoromethylbenzo[b]thiophene]",
> 95,"Oc1c(-c2ccccc2)sc2ccc(Cl)cc12 [Example 18, 5-Chloro-3-hydroxy-2-phenylbenzo[b]thiophene]",
